Read-outs that look alike come from different tables or passages of the source.
How the values were obtained:
[1] = test system: HT-29 (human colon carcinoma) cells; experiment: Cell growth assay (XTT), HT-29, alone or with verapamil; assay type: cell-based
p-62 in MCF7 cells = experiment: Western blot of autophagosome marker p-62, MCF7; assay type: cell-based, human; conditions: MCF7, 175 nM, 24 h
Procedure: MCF7, HeLa and HT-29 cells in an exponential growth phase at 2 × 10^4 cells/mL were seeded in Petri dishes (20 × 100 mm) (10 ml/dish). After 24 h incubation, cells were treated with compound 25 at 175 nM, and the levels of p-62 in treated and untreated cells were measured at 24 h post-treatment. The culture medium was removed, cells were washed with PBS and resuspended in 1 ml lysis buffer (50 mM Tris, 130 mM NaCl, 1 mM EDTA, 1% Triton X-100) containing protease inhibitors (Complete, Roche Applied Science, Indianapolis). Cells were harvested and incubated with lysis buffer for 30 min at 4 °C in constant agitation. Cell extracts were centrifuged at 12,000 rpm for 15 min at 4 °C and the supernatants were stored at −80 °C. Protein concentrations were determined using Bradford (BioRad, Hercules, CA) method taking BSA (Bovine Serum Albumin) as standard. Protein extracts were used for electrophoresis mixing with loading buffer (4% SDS, 0.05% bromophenol blue, 20% glycerine, 2% β-mercaptoethanol, and Tris 100 mM at pH 6.8). Proteins were then denatured at 95 °C for 7 min. Protein samples (50 μg/lane) were subjected to electrophoresis on 8% acrylamide gel and SDS-PAGE running buffer at constant voltage (140 V). Then, acrylamide gels were transferred to a PVDF membrane (Merck Millipore, Burlington, Massachusetts, USA) using a semi-dry transfer system for 30 min at constant voltage (15 V). […]

HT-29 cells = experiment: Cell cycle analysis (PI, flow cytometry), HT-29; assay type: cell-based, human
Procedure: (§1) MCF7, HeLa, and HT-29 cell cycle analyses were performed by quantifying the DNA content by flow cytometry. Cells in the exponential growth phase at 2 × 10^4 cells/mL were seeded in 24-well plates (1 ml/well). After 24 h incubation, cells were treated with compound 25 at 87.5 or 175 nM. After 24, 48, and 72 h treatments, live and dead cells were collected and fixed in ice-cold ethanol:PBS (7:3) and stored at 4 °C for later use. Cells were rehydrated with phosphate-buffered saline (PBS), treated with 100 µg/mL RNase A (Sigma-Aldrich Co., St. Louis, MO, USA), and stained overnight in darkness at room temperature with 50 µg/mL propidium iodide (PI) (Sigma-Aldrich Co.). Cell cycle profiles were then analysed by flow cytometry using BD Accuri™ C6 Plus Flow Cytometer (BD Biosciences, San José, CA, USA). Data were analysed with BD Accuri™ C6 Software (version 1.0.264.21, BD Biosciences, San José, CA, USA) and compared to control cells treated with 0.5% (v/v) DMSO. Compounds were dissolved in DMSO and the final solvent concentrations never exceeded 0.5% (v/v).

MCF7 cells = experiment: Cell cycle analysis (PI, flow cytometry), MCF7; assay type: cell-based, human
Procedure: as §1

[2] = HT-29, 48 h, concentration not specified
[3] = MCF7, 175 nM (higher dose), 48 h
[4] = MCF7, 175 nM (higher dose), 72 h

IC50 ([1]; 72 h, in the presence of Pgp/MDR1 inhibitor verapamil (10 µM), read-out: Antiproliferative activity IC50 HT-29 Verap): 85 nM
IC50 ([1]; Homo sapiens, HT-29, 72 h drug exposure, XTT, read-out: Antiproliferative activity IC50 HT-29): 97 nM
SMILES: COc1ccc(S(=O)(=O)N(CC#N)c2cc(OC)c(Br)cc2OC)cc1 [Compound 25, N-(4-bromo-2,5-dimethoxyphenyl)-N-(cyanomethyl)-4-methoxybenzenesulphonamide]
p-62 levels (p-62 in MCF7 cells): decay in p-62 levels
Cells at G2/M phase (HT-29 cells; HT-29, 87.5 nM, 24 h): 90%
Cells at G2/M phase (HT-29 cells; HT-29, 87.5 nM, 72 h): 58%
subG0/G1 population (HT-29 cells; HT-29, 87.5 nM, 72 h): 23%
Cells at G2/M phase (HT-29 cells; HT-29, 175 nM, 24 h): 83%
Cells at G2/M phase (HT-29 cells; HT-29, 175 nM, 72 h): 54%
subG0/G1 population (HT-29 cells; HT-29, 175 nM, 72 h): 31%
Cells at G2/M phase (HT-29 cells; [2]): 84%
subG0/G1 population (HT-29 cells; [2]): 9%
Cells at G2/M phase (MCF7 cells; MCF7, 87.5 nM, 24 h): 66%
subG0/G1 population (MCF7 cells; MCF7, 87.5 nM, 24 h): 12%
Cells at G2/M phase (MCF7 cells; [3]): 55%
subG0/G1 population (MCF7 cells; [3]): 24%
Cells at G2/M phase (MCF7 cells; [4]): 58%
subG0/G1 population (MCF7 cells; [4]): 26%
Cells at G2/M phase (MCF7 cells; MCF7, 175 nM, 24 h): 60%
subG0/G1 population (MCF7 cells; MCF7, 175 nM, 24 h): 16%

Source: paper PMC8205030, “Methoxy and bromo scans on N-(5-methoxyphenyl) methoxybenzenesulphonamides reveal potent cytotoxic compounds, especially against the human breast adenocarcinoma MCF7 cell line” (Journal of Enzyme Inhibition and Medicinal Chemistry, 2021)
